Experimental data: patent publication US5914244A, “UL97 fusion proteins and methods of use” (priority 1997, dated 1999)
Like-named read-outs stand apart in the source and are kept apart here.

What was measured:
[1] = target: T1, GST-UL97 fusion protein (glutathione-S-transferase fused to wild-type UL97 protein kinase of CMV strain AD169) (Human cytomegalovirus, UniProt P16788); assay: biochemical; format: biochemical; conditions: for inhibition at 10 µM: read-out: reduction / inhibition of histone phosphorylation
T1 construct: degradation products of the full length GST-UL97 fusion proteins; made in house; host or cells: Spodoptera frugiperda Sf21 cells infected with recombinant baculovirus BVGSTUL97
Description: (§1) Protein samples were added to 20 μl of reaction buffer containing 50 mM Tris HCl pH 9.0, 10 mM MgCl2, 5 μM ATP, 2 mM DTT, 1 M NaCl and 5 μCi γ^32 P-ATP (unless otherwise stated). After incubation at 37° C. for 30 min (unless otherwise stated), the reactions were terminated by addition of 20 μl of 2× Laemmli sample buffer to the sample and boiling for 3 min. Phosphorylated proteins were resolved by electrophoresis on 10% SDS-PAGE gels and detected by autoradiography. In order to quantitate the level of phosphorylation, the region of the gel corresponding to the labelled protein was excised and the Cerenkov radioactivity was counted. For assay of extracts of insect cells infected with BVUL97 and related recombinant viruses, 2×10^7 infected or mock-infected cells were broken by sonication in 1 ml of ice-cold lysis buffer B (50 mM Tris-HCl pH 7.6, 100 mM NaCl, 5 mM MgCl2, 0.1% NP-40, 10% glycerol, […] and 1 mM PMSF). Insoluble material was removed by centrifugation at 12,000×g for 5 minutes.
Exogenous UL97 substrates identified in the substrate assay are used to detect agents which affect UL97 protein kinase activity. […] In a typical reaction, 0.8 μg/μl histone was dissolved in 20 μl reaction buffer, and the reaction was initiated by addition of 1.9 ng/μl GST-UL97. Following a 30 min incubation at 37° C., the reaction was terminated by the addition of 2× Laemmli sample buffer to the sample and boiling for 3 min. Proteins were separated on 15% SDS-PAGE gels, and phosphorylation was detected by autoradiography.
In this assay, an agent which may be an inhibitor or an activator of UL97 is added to the phosphorylation reaction, and the reaction is allowed to proceed. The amount of phosphorylation is then measured, to see if the agent increases or decreases UL97-mediated histone phosphorylation.

[2] = target: T1, GST-UL97 fusion protein (glutathione-S-transferase fused to wild-type UL97 protein kinase of CMV strain AD169); assay: GST-UL97 autophosphorylation protein kinase assay (Km by Lineweaver-Burk plot); format: biochemical
Description: as §1
The Michaelis or apparent dissociation constant (Km) for GST-UL97 was determined using a Lineweaver-Burk plot. Kinase reactions (enzyme concentration, 4.7 ng/μl) were carried out in 200 μl standard assay buffer. […] Radiolabelled GST-UL97 was separated on 10% SDS-PAGE gels and quantified by Cerenkov count. […]

T1 sequence (P16788 whole entry, the tested form may be a part): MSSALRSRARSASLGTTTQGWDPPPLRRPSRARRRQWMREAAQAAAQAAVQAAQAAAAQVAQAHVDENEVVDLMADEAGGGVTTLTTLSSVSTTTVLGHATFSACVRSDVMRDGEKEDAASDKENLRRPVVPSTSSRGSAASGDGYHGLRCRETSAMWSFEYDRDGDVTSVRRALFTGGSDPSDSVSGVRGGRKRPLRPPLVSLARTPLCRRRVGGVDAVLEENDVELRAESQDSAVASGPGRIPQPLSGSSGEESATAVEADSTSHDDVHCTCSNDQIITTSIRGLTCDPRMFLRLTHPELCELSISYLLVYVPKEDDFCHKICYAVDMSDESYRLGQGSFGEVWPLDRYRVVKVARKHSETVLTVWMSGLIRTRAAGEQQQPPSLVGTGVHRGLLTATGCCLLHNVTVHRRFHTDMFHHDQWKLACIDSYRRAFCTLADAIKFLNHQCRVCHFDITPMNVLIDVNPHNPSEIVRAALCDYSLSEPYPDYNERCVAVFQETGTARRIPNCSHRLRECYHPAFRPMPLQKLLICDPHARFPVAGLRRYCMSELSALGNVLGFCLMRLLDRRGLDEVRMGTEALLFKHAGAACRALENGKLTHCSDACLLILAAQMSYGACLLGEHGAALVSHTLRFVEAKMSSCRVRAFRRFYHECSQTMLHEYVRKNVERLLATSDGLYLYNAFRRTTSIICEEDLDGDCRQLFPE

Q: Which activity at 5 µM ([1]; addition at 5 μM, histone phosphorylation, none = 100) does the source give for `Nc1ncnc2c1ncn2[C@@H]1O[C@H](COP(=O)(O)OP(=O)(O)O)[C@@H](O)[C@H]1O` [ADP] here?
A: 166%

Q: And the “effect on UL97 protein kinase activity (in words)” value ([1]; histone phosphorylation, ADP at 5 μM)?
A: stimulatory effect

Q: Which Km ([2]; optimal divalent cation concentration, enzyme 4.7 ng/μl, read-out: Km determined for ATP as substrate) does the source give for `Nc1ncnc2c1ncn2[C@@H]1O[C@H](COP(=O)(O)OP(=O)(O)OP(=O)(O)O)[C@@H](O)[C@H]1O` [ATP] here?
A: 2 ± 0.5 µM

Q: With `Nc1nc2c(ncn2[C@@H]2O[C@H](COP(=O)(O)OP(=O)(O)OP(=O)(O)O)[C@@H](O)[C@H]2O)c(=O)[nH]1` [GTP] as the compound, how does the Km ([2]; 10 mM Mg2+, read-out: Km for GTP as a phosphate donor) read?
A: 4 µM

Q: Which results are given for `Nc1nc2c(ncn2[C@@H]2O[C@H](CO)[C@@H](O)[C@H]2O)c(=O)[nH]1` [Guanosine]?
A: activity at 10 µM [1]: 125%; effect on GST-UL97 kinase activity (in words) ([1]; histone phosphorylation, cAMP 5 μM, guanosine 10 μM (Table 2)): Neither cAMP nor guanosine showed an inhibitory effect

Q: Which activity at 10 µM ([1]; addition at 10 μM, histone phosphorylation, none = 100, read-out: Activity (%)) does the source give for `O=c1c(O)c(-c2ccc(O)c(O)c2)oc2cc(O)cc(O)c12` [Quercetin] here?
A: 28%

Q: And the inhibition at 10 µM ([1]; agent at 10 μM)?
A: > 70%

Q: Which activity at 10 µM [1] does the source give for `N#CC(C#N)=Cc1ccc(O)c(O)c1` [Tyrphostin 23] here?
A: 27%

Q: What about the inhibition at 10 µM [1] of the same compound?
A: 73%

Q: What does the source list for `NCCCNCCCCNCCCN` [spermine]?
A: activity at 100 µM [1]: 163%; effect on UL97-mediated phosphorylation of histone (in words) ([1]; 0.1 mM spermine): enhanced
